Data from ChEMBL document CHEMBL5550127, “1,2,3-Triazole-totarol conjugates as potent PIP5K1α lipid kinase inhibitors” (Bioorg Med Chem, 2024).
pEC50: −log10 of the molar value. Each block holds one molecule with its values, some of them ahead of it. Calls of active or inactive are those of the source. The calls are words filed in the database; no cut-off is given here.

What was measured:
LNCaP [1] = assay: Antiproliferative activity against human LNCaP cells assessed as inhibition of cell growth by measuring reduction in cell confluence at 20 uM measured every 2 hrs for 48 hrs by IncuCyte live-cell imaging analysis; assay type: functional, cell-based
[2] = biological target: Phosphatidylinositol 4-phosphate 5-kinase type-1 alpha (Homo sapiens) (UniProt Q99755); assay: (§1) Inhibition of recombinant human PIP5K1alpha expressed in Escherichia coli BL21 (DE3) using phosphatidylinositol-4-phosphate as substrate at 10 uM preincubated for 10 mins followed by substrate and ATP addition and further incubated under dark condition with constant shaking for 30 mins by capillary electrophoresis; conditions: time 40.0 min
Sequence of Phosphatidylinositol 4-phosphate 5-kinase type-1 alpha (Homo sapiens) (Q99755 whole entry): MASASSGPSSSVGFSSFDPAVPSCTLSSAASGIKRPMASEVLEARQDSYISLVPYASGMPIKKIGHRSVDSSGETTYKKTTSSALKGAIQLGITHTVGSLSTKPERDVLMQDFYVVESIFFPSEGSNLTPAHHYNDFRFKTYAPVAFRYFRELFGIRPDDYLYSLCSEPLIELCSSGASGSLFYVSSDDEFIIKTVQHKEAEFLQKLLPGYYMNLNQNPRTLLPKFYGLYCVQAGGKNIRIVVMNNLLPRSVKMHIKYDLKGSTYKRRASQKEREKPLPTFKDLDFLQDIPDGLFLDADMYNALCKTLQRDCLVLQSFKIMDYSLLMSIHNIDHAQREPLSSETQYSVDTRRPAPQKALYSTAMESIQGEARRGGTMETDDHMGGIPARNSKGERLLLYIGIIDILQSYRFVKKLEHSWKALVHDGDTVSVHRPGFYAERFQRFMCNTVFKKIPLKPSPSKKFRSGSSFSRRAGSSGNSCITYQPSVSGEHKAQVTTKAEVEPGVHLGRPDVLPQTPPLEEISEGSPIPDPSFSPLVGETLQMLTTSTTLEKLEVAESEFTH

LNCaP [3] = assay: Antiproliferative activity against human LNCaP cells assessed as inhibition of cell growth by measuring reduction in cell confluence at 5 to 20 uM measured every 2 hrs for 48 hrs by IncuCyte live-cell imaging analysis; assay type: functional, cell-based; conditions: dose 5-20 µM
[4] = biological target: Phosphatidylinositol 4-phosphate 5-kinase type-1 alpha (Homo sapiens) (UniProt Q99755); assay: as §1, with “substrate at 1 to 10 uM” for “substrate at 10 uM”; conditions: dose 1-10 µM, time 40.0 min
DU-145 [5] = assay: Antiproliferative activity against human DU-145 cells assessed as inhibition of cell growth by measuring reduction in cell confluence at 10 to 20 uM measured every 2 hrs for 72 hrs by IncuCyte live-cell imaging analysis; assay type: functional, cell-based; conditions: dose 10-20 µM
LNCaP [6] = assay: Antiproliferative activity against human LNCaP cells assessed as inhibition of cell growth by measuring reduction in cell confluence at 10 to 20 uM measured every 2 hrs for 72 hrs by IncuCyte live-cell imaging analysis; assay type: functional, cell-based; conditions: dose 10-20 µM
PC-3 [7] = assay: Induction of morphological changes in human PC-3 cells assessed as change in cell shape at 10 uM measured after 0 to 72 hrs by IncuCyte live-cell imaging based phase contrast microscopic analysis; assay type: functional; conditions: time 0-72 hrs
PC-3 [8] = assay: Induction of morphological changes in human PC-3 cells assessed as change in number of cells at 10 uM measured after 0 to 72 hrs by IncuCyte live-cell imaging based phase contrast microscopic analysis; assay type: functional; conditions: time 0-72 hrs
DU-145 [9] = assay: Induction of morphological changes in human DU-145 cells assessed as change in cell shape at 10 uM measured after 0 to 72 hrs by IncuCyte live-cell imaging based phase contrast microscopic analysis; assay type: functional; conditions: time 0-72 hrs
DU-145 [10] = assay: Induction of morphological changes in human DU-145 cells assessed as change in number of cells at 10 uM measured after 0 to 72 hrs by IncuCyte live-cell imaging based phase contrast microscopic analysis; assay type: functional; conditions: time 0-72 hrs
LNCaP [11] = assay: Induction of morphological changes in human LNCaP cells assessed as change in cell shape at 10 uM measured after 0 to 72 hrs by IncuCyte live-cell imaging based phase contrast microscopic analysis; assay type: functional; conditions: time 0-72 hrs
LNCaP [12] = assay: Antiproliferative activity against human LNCaP cells assessed as inhibition of cell growth by measuring reduction in cell confluence at 1 to 5 uM measured every 2 hrs for 72 hrs by IncuCyte live-cell imaging analysis; assay type: functional, cell-based; conditions: dose 1-5 µM
LNCaP [13] = assay: Induction of morphological changes in human LNCaP cells assessed as change in number of cells at 10 uM measured after 0 to 72 hrs by IncuCyte live-cell imaging based phase contrast microscopic analysis; assay type: functional; conditions: time 0-72 hrs
DU-145 [14] = assay: cells; conditions: Homo sapiens, DU-145, 72 h
Description: Antiproliferative activity against human DU-145 cells assessed as inhibition of cell growth measured after 72 hrs by IncuCyte live-cell imaging analysis

PC-3 [15] = assay: Antiproliferative activity against human PC-3 cells assessed as inhibition of cell growth by measuring reduction in cell confluence at 10 to 20 uM measured every 2 hrs for 72 hrs by IncuCyte live-cell imaging analysis; assay type: functional, cell-based; conditions: dose 10-20 µM
DU-145 [16] = assay: Antiproliferative activity against human DU-145 cells assessed as inhibition of cell growth by measuring reduction in cell confluence at 1 to 5 uM measured every 2 hrs for 72 hrs by IncuCyte live-cell imaging analysis; assay type: functional, cell-based; conditions: dose 1-5 µM
PC-3 [17] = assay: cells; conditions: Homo sapiens, PC-3, 72 h
Description: Antiproliferative activity against human PC-3 cells assessed as inhibition of cell growth measured after 72 hrs by IncuCyte live-cell imaging analysis

LNCaP [18] = assay: Antiproliferative activity against human LNCaP cells assessed as inhibition of cell growth by measuring negative AUC values at 20 uM measured after 48 hrs by IncuCyte live-cell imaging analysis; assay type: functional, cell-based
DU-145 [19] = assay: Antiproliferative activity against human DU-145 cells assessed as inhibition of cell growth by measuring negative AUC values at 20 uM measured after 48 hrs by IncuCyte live-cell imaging analysis; assay type: functional, cell-based
LNCaP [20] = assay: cells; conditions: Homo sapiens, 72 h
Description: Antiproliferative activity against human LNCaP cells assessed as inhibition of cell growth measured after 72 hrs by IncuCyte live-cell imaging analysis

PC-3 [21] = assay: Antiproliferative activity against human PC-3 cells assessed as inhibition of cell growth by measuring negative AUC values at 20 uM measured after 48 hrs by IncuCyte live-cell imaging analysis; assay type: functional, cell-based
Casein kinase 2 = Casein kinase 2 (Homo sapiens, UniProt P67870+P68400+P19784+Q8NEV1); assay: Inhibition of CK2 (unknown origin) using RRRDDDSDDD-EDANS as substrate measured after 15 mins by capillary electrophoresis; assay type: protein assay

SMILES: CC(C)c1c(O)ccc2c1CC[C@H]1C(C)(C)CCC[C@]21C
Activity (LNCaP [1]): inactive | inhibition [2]: inactive

SMILES: CN(C)CCN1C(=O)c2cccc3c(-n4cc(CO)nn4)ccc(c23)C1=O
Activity (LNCaP [3]): Active

SMILES: CCCCCCCCCCCn1cc(COc2ccc3c(c2C(C)C)CC[C@H]2C(C)(C)CCC[C@]32C)nn1
inhibition [4]: inactive

Continued, in another order:

pEC50 (DU-145 [14]): 5.07 | pEC50 (PC-3 [17]): 5.31 | pEC50 (LNCaP [20]): 4.80
SMILES: CC(C)c1c(OCc2cn(C3=CCC4C(=O)N(CCN(C)C)C(=O)c5cccc3c54)nn2)ccc2c1CC[C@H]1C(C)(C)CCC[C@]21C (stereo partly drawn)
Activity (DU-145 [5]): Active | Activity (LNCaP [6]): Active | Activity (PC-3 [7]): Active | Activity (PC-3 [8]): Active | Activity (DU-145 [9]): Active | Activity (DU-145 [10]): Active | Activity (LNCaP [11]): Active | Activity (LNCaP [12]): inactive | Activity (LNCaP [13]): Active | Activity (PC-3 [15]): Active | Activity (DU-145 [16]): inactive | Activity (LNCaP [18]): Active | Activity (DU-145 [19]): Active | Activity (PC-3 [21]): Active

IC50 (Casein kinase 2): 4.1 µM
SMILES: COc1ccc(-n2cc(COc3ccc4c(c3C(C)C)CC[C@H]3C(C)(C)CCC[C@]43C)nn2)cc1

IC50 (Casein kinase 2): 0.91 µM
SMILES: CC(C)c1c(OCc2cn(-c3cccc([N+](=O)[O-])c3)nn2)ccc2c1CC[C@H]1C(C)(C)CCC[C@]21C
